Drawing on ChEMBL document CHEMBL3611979, “Design, synthesis and biological characterization of selective LIMK inhibitors” (Bioorg Med Chem Lett, 2015), this text covers IC50, EC50 and Activity for 28 compounds.

The target in one data set is LIM domain kinase 1 (Homo sapiens, UniProt P53667). As to the kind of experiment: Inhibition of LIMK1 (unknown origin) by radiometric assay.
The next data set addresses LIM domain kinase 2 (Homo sapiens, UniProt P53671). As to the kind of experiment: Inhibition of LIMK2 (unknown origin) by radiometric assay.
Data set [1] deals with Rho-associated protein kinase 2 (Homo sapiens, UniProt O75116). As to the kind of experiment: Inhibition of ROCK2 (unknown origin) by radiometric assay.
In data set [2] the target is cAMP-dependent protein kinase (PKA) (Homo sapiens, UniProt P22694+P17612+P22612). As to the kind of experiment: Inhibition of PKA (unknown origin) by radiometric assay. Format: protein assay.
Data set [3] concerns the target RAC-alpha serine/threonine-protein kinase (Homo sapiens, UniProt P31749). As to the kind of experiment: Inhibition of AKT1 (unknown origin) by radiometric assay.
A short description of data set [4]: Inhibition of ROCK in rat A7r5 cells assessed as reduction in MLC Thr18/Ser19 phosphorylation by direct-ELISA method. Format: cell-based. (In general: In an ELISA, binding on a coated surface is turned into a signal by an enzyme label.)
Data set [5] can be described thus: Inhibition of LIMK in human HeLa cells assessed as reduction in cofilin Ser3 phosphorylation by sandwich immunoassay. Format: cell-based.
For the next data set, the system named is Oryctolagus cuniculus. As to the kind of experiment: Toxicity in ocular normotensive New Zealand White rabbit assessed as induction of conjunctival hyperemia at 200 µg/eye drop dosed as single topical administration measured 1 to 6 hrs post compound instillation. The class given is organism-based, Conjunctiva. The settings on record: in vivo, topical_or_ocular.

Rho-associated protein kinase 2, sequence (O75116 whole entry): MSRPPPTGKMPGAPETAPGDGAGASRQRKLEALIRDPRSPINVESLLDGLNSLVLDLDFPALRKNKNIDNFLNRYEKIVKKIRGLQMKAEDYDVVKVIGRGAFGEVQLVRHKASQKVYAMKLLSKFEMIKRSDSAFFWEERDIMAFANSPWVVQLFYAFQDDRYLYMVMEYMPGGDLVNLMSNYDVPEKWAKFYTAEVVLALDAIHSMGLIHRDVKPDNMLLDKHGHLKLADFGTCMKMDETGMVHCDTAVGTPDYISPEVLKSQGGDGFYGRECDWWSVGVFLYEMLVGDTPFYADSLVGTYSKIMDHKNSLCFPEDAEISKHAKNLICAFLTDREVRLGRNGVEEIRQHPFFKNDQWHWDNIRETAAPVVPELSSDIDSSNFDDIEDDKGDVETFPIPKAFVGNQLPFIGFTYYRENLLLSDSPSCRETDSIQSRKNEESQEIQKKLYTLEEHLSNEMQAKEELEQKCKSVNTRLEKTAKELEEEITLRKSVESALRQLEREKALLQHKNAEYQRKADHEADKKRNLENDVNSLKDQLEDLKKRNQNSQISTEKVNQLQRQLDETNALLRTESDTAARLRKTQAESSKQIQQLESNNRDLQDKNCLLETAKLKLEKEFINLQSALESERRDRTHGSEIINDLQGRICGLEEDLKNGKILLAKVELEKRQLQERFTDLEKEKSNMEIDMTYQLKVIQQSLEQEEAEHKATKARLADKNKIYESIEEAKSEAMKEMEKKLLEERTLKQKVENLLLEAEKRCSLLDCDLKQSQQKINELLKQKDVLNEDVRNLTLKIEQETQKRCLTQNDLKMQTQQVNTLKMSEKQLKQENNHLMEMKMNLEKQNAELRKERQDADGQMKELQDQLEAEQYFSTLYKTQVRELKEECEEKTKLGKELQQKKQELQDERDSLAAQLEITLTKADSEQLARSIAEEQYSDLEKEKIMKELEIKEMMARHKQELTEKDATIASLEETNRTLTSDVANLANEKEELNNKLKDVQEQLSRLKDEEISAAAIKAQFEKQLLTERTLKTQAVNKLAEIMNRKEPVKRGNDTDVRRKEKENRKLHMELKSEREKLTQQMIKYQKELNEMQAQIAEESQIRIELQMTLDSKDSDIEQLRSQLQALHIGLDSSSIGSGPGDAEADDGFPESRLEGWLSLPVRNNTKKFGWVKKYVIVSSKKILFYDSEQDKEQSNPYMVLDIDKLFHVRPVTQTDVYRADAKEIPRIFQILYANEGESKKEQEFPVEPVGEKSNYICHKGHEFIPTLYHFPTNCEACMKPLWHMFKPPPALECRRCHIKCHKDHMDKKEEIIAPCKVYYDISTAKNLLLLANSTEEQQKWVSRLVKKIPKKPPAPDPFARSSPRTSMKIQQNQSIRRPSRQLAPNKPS
LIM domain kinase 1, sequence (P53667 whole entry, the tested form may be a part): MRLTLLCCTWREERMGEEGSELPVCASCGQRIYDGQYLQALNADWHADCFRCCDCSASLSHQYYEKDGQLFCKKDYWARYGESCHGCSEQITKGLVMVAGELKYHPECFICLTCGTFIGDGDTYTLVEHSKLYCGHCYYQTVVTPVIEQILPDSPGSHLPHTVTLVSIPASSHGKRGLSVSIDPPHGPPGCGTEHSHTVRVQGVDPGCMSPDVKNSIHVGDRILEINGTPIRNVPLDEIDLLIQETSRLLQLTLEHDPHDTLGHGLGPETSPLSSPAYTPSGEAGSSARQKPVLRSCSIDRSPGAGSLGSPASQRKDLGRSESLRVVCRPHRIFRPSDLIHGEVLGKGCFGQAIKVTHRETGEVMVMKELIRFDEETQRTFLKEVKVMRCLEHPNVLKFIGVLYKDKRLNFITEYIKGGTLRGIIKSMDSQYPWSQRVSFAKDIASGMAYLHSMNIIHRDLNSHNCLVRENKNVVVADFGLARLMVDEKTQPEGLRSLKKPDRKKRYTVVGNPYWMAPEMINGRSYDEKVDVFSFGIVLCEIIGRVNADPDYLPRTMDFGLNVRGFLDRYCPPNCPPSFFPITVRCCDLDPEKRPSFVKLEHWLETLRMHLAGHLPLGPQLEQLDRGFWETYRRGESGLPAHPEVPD
LIM domain kinase 2, sequence (P53671 whole entry, the tested form may be a part): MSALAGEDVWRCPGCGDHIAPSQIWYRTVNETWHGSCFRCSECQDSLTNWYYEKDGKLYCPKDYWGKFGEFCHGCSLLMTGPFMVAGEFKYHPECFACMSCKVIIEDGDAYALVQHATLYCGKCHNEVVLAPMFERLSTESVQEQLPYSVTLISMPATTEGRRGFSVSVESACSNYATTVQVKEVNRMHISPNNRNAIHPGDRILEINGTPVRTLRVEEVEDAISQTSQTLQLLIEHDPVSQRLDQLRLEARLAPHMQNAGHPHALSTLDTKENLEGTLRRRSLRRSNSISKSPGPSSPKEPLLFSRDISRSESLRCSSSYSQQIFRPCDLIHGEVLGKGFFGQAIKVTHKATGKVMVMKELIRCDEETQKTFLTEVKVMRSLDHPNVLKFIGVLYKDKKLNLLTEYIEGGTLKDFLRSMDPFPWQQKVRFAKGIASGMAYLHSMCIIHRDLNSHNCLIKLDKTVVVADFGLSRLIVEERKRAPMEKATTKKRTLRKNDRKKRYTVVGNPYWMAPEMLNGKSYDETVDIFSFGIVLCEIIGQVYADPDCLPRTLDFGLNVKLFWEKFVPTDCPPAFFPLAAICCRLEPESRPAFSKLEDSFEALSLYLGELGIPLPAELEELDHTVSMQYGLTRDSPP
RAC-alpha serine/threonine-protein kinase, sequence (P31749 whole entry): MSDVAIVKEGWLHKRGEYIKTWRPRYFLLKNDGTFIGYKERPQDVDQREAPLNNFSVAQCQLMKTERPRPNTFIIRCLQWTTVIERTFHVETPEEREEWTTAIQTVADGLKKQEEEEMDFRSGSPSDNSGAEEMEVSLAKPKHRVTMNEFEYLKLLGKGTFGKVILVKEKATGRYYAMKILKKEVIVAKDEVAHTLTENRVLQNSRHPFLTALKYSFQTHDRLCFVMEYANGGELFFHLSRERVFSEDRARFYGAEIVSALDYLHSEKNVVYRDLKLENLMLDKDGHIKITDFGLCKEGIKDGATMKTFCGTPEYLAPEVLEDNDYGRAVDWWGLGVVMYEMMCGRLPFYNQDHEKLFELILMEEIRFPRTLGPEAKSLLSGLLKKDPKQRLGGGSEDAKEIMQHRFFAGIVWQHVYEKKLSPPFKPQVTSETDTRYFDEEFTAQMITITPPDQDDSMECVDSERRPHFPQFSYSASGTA

Take `COC(=O)c1cccc(NC(=O)C2(CN)CCN(c3ncnc4[nH]cc(C)c34)CC2)c1`: the IC50 against LIM domain kinase 1 was 16 nM; at LIM domain kinase 2, below 1 nM; in data set [1], below 1 nM; in data set [2] it was below 1 nM.

Take `Cc1c[nH]c2ncnc(N3CCC(CN(C)C)(C(=O)Nc4cccc(OC(=O)N(C)C)c4)CC3)c12`: the IC50 is 19 nM at LIM domain kinase 1, below 1 nM against LIM domain kinase 2, 40 nM in data set [1] and 2.6 nM in data set [2].

For `COC(=O)c1cccc(NC(=O)C2(CN(C)C)CCN(c3ncnc4[nH]cc(C)c34)CC2)c1`, the 50% inhibitory concentration (IC50) on LIM domain kinase 1 amounted to 27 nM; against LIM domain kinase 2 it was 1.5 nM; in data set [1] it was 8.9 nM; in data set [2] it was 24 nM.

Turning to `COC(=O)c1cccc(NC(=O)C2(N)CCN(c3ncnc4[nH]cc(C)c34)CC2)c1`, the IC50 on LIM domain kinase 1 turned out to be 18 nM; at LIM domain kinase 2, 7.4 nM; in data set [1] it was 100 nM; in data set [2] it was 81 nM.

For the compound `COC(=O)c1cccc(NC(=O)C2(N(C)C)CCN(c3ncnc4[nH]cc(C)c34)CC2)c1`, the concentration for half-maximal inhibition (IC50) on LIM domain kinase 1 is 37 nM; against LIM domain kinase 2 it was 12 nM; in data set [1] it was 63 nM; in data set [2] it was 150 nM.

With `COC(=O)COc1cccc(NC(=O)C2(CN(C)C)CCN(c3ncnc4[nH]cc(C)c34)CC2)c1`, the 50% inhibitory concentration (IC50) is 38 nM against LIM domain kinase 1, below 1 nM against LIM domain kinase 2, 7.9 nM in data set [1] and 5.4 nM in data set [2].

Take `COC(=O)Cc1cccc(NC(=O)C2(CN(C)C)CCN(c3ncnc4[nH]cc(C)c34)CC2)c1`: the IC50 against LIM domain kinase 1 is 57 nM; against LIM domain kinase 2, below 1 nM; in data set [1] it was 56 nM; in data set [2], 7 nM.

`COC(=O)c1ccc(NC(=O)C2(CN(C)C)CCN(c3ncnc4[nH]cc(C)c34)CC2)cc1`: the IC50 against LIM domain kinase 1 stood at 41 nM; at LIM domain kinase 2, 7.7 nM; in data set [1] it was 7.2 nM; in data set [2] it was 2.7 nM.

With `CCCOC(=O)c1cccc(NC(=O)C2(CN(C)C)CCN(c3ncnc4[nH]cc(C)c34)CC2)c1`, the concentration for half-maximal inhibition (IC50) on LIM domain kinase 1 was found to be 50 nM; against LIM domain kinase 2 it was 2.1 nM; in data set [1], 41 nM; in data set [2], 5.8 nM.

With `Cc1c[nH]c2ncnc(N3CCC(CN(C)C)(C(=O)Nc4cccc(C(=O)OC(C)C)c4)CC3)c12`, the IC50 against LIM domain kinase 1 is 41 nM; at LIM domain kinase 2, 2.2 nM; in data set [1], 53 nM; in data set [2] it was 22 nM.

For the compound `CCC(C)OC(=O)c1cccc(NC(=O)C2(CN(C)C)CCN(c3ncnc4[nH]cc(C)c34)CC2)c1` (stereo not given), the IC50 at LIM domain kinase 1 was 50 nM; on LIM domain kinase 2, 4.6 nM; in data set [1], 137 nM; in data set [2] it was 24 nM.

In the case of `C#CCOC(=O)c1cccc(NC(=O)C2(CN(C)C)CCN(c3ncnc4[nH]cc(C)c34)CC2)c1`, the IC50 against LIM domain kinase 1 was 7.6 nM; against LIM domain kinase 2 it was below 1 nM; in data set [1], 16 nM; in data set [2], 2.2 nM.

Regarding `COC(=O)c1cccc(NC(=O)C2(CN(C)C)CCN(c3ncnc4[nH]ccc34)CC2)c1`, the concentration for half-maximal inhibition (IC50) at LIM domain kinase 1 was determined as 23 nM; against LIM domain kinase 2, 13 nM; in data set [1], 1.8 nM; in data set [2] it was 1.1 nM.

Turning to `COC(=O)c1cccc(NC(=O)C2(CN(C)C)CCN(c3ncnc4[nH]ncc34)CC2)c1`, the IC50 against LIM domain kinase 1 was 282 nM; against LIM domain kinase 2 it was 193 nM; in data set [1], 62 nM; in data set [2], 5.1 nM.

Turning to `COC(=O)c1cccc(NC(=O)C2(CN(C)C)CCN(c3ccnc4[nH]ncc34)CC2)c1`, the IC50 at LIM domain kinase 1 was 65 nM; on LIM domain kinase 2, 274 nM; in data set [1] it was 11 nM; in data set [2] it was 3.8 nM.

On to `COC(=O)c1cccc(NC(=O)C2(CN(C)C)CCN(c3ncnc4c3CC(=O)N4)CC2)c1`, for which the IC50 is 1000 nM at LIM domain kinase 1, 1860 nM against LIM domain kinase 2, above 10000 nM in data set [1] and 1130 nM in data set [2].

Consider `COC(=O)c1cccc(NC(=O)C2(N)CCN(c3ncnc4[nH]ccc34)CC2)c1`, for which the half-inhibitory concentration (IC50) at LIM domain kinase 1 came to 31 nM; against LIM domain kinase 2 it was 9.6 nM; in data set [1], 67 nM; in data set [2], 69 nM.

As to `COC(=O)c1cccc(NC(=O)C2(N)CCN(c3ccncn3)CC2)c1`, the half-inhibitory concentration (IC50) at LIM domain kinase 1 is above 1000 nM; against LIM domain kinase 2, above 10000 nM; in data set [1], above 1000 nM; in data set [2], above 1000 nM.

Consider `COC(=O)c1cccc(NC(=O)C2(N)CCN(c3cc(N)ncn3)CC2)c1`, for which the IC50 on LIM domain kinase 1 was 945 nM; against LIM domain kinase 2 it was 4560 nM; in data set [1] it was 2060 nM; in data set [2], above 1000 nM.

As for `COC(=O)c1cccc(NC(=O)C2(N)CCN(c3ccnc(N)n3)CC2)c1`, the IC50 was above 1000 nM on LIM domain kinase 1, above 10000 nM against LIM domain kinase 2, 416 nM in data set [1] and above 1000 nM in data set [2].

Take `COC(=O)c1cccc(NC(=O)C2(N)CCN(c3cc(NC(C)=O)ncn3)CC2)c1`: the half-maximal inhibitory concentration (IC50) against LIM domain kinase 1 is 239 nM; against LIM domain kinase 2, 494 nM; in data set [1], above 1000 nM; in data set [2], above 1000 nM.

Take `COC(=O)c1cccc(NC(=O)C2(N)CCN(c3ccnc(NC(C)=O)n3)CC2)c1`: the concentration for half-maximal inhibition (IC50) against LIM domain kinase 1 was above 10000 nM; against LIM domain kinase 2, above 10000 nM; in data set [1] it was above 1000 nM; in data set [2] it was above 1000 nM.

For `COC(=O)c1cccc(NC(=O)C2(CN(C)C)CCN(c3ncnc4[nH]cc(C#N)c34)CC2)c1`, the IC50 was 25 nM against LIM domain kinase 1, 4 nM on LIM domain kinase 2, 2.5 nM in data set [1] and below 1 nM in data set [2].

In the case of `COC(=O)c1cccc(NC(=O)C2(CN(C)C)CCN(c3ncnc4[nH]cc(F)c34)CC2)c1`, the IC50 against LIM domain kinase 1 is 20 nM; against LIM domain kinase 2, 2.8 nM; in data set [1], 5.7 nM; in data set [2], below 1 nM.

In the case of `COC(=O)c1cccc(NC(=O)C2(CN(C)C)CCN(c3ncnc4[nH]c(C)cc34)CC2)c1`, the IC50 came to 23 nM against LIM domain kinase 1, 8 nM on LIM domain kinase 2, 652 nM in data set [1] and 332 nM in data set [2].

As for `COC(=O)c1cccc(NC(=O)C2(CN(C)C)CCN(c3ncnc4[nH]c(C)c(C)c34)CC2)c1`, the IC50 against LIM domain kinase 1 was 26 nM; at LIM domain kinase 2 it was 1.6 nM; in data set [1] it was above 1000 nM; in data set [2], above 1000 nM; in data set [3], above 1000 nM. Besides, the 50% effective concentration (EC50) in data set [4] is above 10000 nM.

For the compound `Cc1[nH]c2ncnc(N3CCC(CN(C)C)(C(=O)Nc4cccc(OC(=O)N(C)C)c4)CC3)c2c1C`, the IC50 was 22 nM on LIM domain kinase 1; 1.4 nM at LIM domain kinase 2; above 1000 nM in data set [1]; above 1000 nM in data set [2]; above 1000 nM in data set [3]. Besides, the EC50 in data set [4] was above 10000 nM; in data set [5], 9 nM.

Consider `Cc1c[nH]c2ncnc(N3CCC(CN)(C(=O)Nc4cccc(OC(=O)N(C)C)c4)CC3)c12` [LX-7101], for which the IC50 against LIM domain kinase 2 was 1.6 nM; in data set [1], 10 nM; in data set [2], below 1 nM; in data set [3], below 1 nM. Moreover, the 50% effective concentration (EC50) in data set [4] amounted to 2300 nM; in data set [5], 8.7 nM. Further, in the data set on Oryctolagus cuniculus, the Activity entry is recorded as “Toxic”.

The term IC50 denotes the midpoint of a concentration-inhibition curve. Lower therefore signals greater potency. Broadly, the EC50 is the midpoint of the concentration-response curve.
